According to US8008021B2, “N-terminal truncation of cardiac troponin subunits and their roles in cardiovascular disease” (Evanston Northwestern Healthcare, priority 2006, dated 2011):

Biological target: T1, myofibril associated μ-calpain (Mus musculus, UniProt O35350)
T1 construct: To test whether endogenous calpain in the cardiac muscle contributes to TnT NH2-terminal modification; from tissue
T1 sequence (O35350 1-713): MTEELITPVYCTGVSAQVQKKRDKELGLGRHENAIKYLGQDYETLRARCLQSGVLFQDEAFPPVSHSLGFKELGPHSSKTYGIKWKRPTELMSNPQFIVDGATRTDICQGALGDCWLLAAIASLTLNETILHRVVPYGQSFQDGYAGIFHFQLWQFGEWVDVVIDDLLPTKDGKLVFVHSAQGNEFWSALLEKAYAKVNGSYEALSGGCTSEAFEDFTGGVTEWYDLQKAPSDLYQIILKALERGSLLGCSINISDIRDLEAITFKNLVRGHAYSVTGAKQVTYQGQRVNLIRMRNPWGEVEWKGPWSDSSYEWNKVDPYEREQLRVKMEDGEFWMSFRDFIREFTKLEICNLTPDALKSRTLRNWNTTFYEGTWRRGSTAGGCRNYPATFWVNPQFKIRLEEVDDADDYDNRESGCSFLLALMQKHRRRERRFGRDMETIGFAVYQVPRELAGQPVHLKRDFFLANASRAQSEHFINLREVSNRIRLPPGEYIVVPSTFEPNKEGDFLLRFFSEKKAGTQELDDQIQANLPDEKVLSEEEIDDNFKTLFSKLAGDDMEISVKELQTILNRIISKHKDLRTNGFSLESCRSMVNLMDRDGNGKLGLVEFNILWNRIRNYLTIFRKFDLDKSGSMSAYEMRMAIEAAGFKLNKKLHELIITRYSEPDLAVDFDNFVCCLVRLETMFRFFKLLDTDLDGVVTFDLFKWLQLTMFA
T1 sequence (O88456 1-268 partner): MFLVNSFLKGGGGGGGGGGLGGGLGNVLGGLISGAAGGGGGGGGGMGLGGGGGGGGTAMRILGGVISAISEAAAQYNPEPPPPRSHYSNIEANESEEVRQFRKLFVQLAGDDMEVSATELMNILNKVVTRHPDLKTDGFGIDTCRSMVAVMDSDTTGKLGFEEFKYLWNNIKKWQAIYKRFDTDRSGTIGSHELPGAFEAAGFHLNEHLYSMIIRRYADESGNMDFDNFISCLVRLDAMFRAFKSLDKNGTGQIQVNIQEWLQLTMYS
Assay: Calpain inhibition of cTnT-ND production in TRITON X-100 extracted ventricular muscle strips (Western blot densitometry)
Format: biochemical
Settings: calpain specific inhibitor; TRITON X-100 extracted mouse cardiac muscle strips
Method: SDS-PAGE and Western blotting. Ventricular muscle tissues or myocytes were homogenized in Laemmli SDS-PAGE sample buffer containing 2% SDS, heated at 80° C. for 5 min, and clarified by centrifugation. Total protein extracts were resolved by 14% Laemmli gel with an acrylamide:bisacrylamide ratio of 180:1 (low cross linker) or by 15% Laemmli gel with an acrylamide:bisacrylamide ratio of 29:1 (high cross linker). The gels were stained with Coomassie Brilliant Blue R250 to reveal the resolved protein bands. Duplicate gels were electrically blotted to nitrocellulose membranes, as described previously (21). After blocking in Tris-buffered saline (TBS) containing 1% bovine serum albumin (BSA), the membrane was incubated with anti-TnT mAbs CT3, 2C8, or polyclonal antibody RATnT. The membranes were then washed with high stringency using TBS containing 0.5% TRITON® X-100 and 0.05% SDS, incubated with alkaline phosphatase-conjugated anti-mouse IgG or anti-rabbit IgG second antibodies (Sigma), washed again, and developed in 5-bromo-4-chloro-3-indolylphosphate/nitro blue tetrazolium substrate solution, as described previously (21).
TRITON® X-100 extraction of ventricular muscle strips. In an ice container, ventricular muscle was cut with a sharp razor blade into fine pieces approximately the size of isolated trabeculae. The muscle strips were washed in relaxing solution containing […], 2 mM MgCl2, 2 mM EGTA, 10 mM Tris, 0.5 mM DTT, 0.1 mM PMSF and 2 mM Na4P2O7. After centrifugation at 2,800×g at 4° C. for 15 min, the pellet was skinned in relaxing solution plus 0.5% (w/w) TRITON® X-100 at 4° C. with rotation for 10 min. After centrifugation at 14,000×g at 4° C. for 20 min, the pellet was suspended in relaxing solution without TRITON® X-100 and incubated at 37° C. with rotation. Samples were collected at a series of time points for SDS-PAGE and Western blotting to examine the modifications of cTnT and other myofibrillar proteins.
Calpain inhibition. To test whether endogenous calpain in the cardiac muscle contributes to TnT NH2-terminal modification, several different calpain inhibitors were applied to the TRITON® X-100 extraction procedure. […] TRITON® X-100 treatment of mouse ventricular muscle strips was carried out as above in the presence or absence of 100 μM hydrogen peroxide and the effect on cTnT modification was examined by Western blotting.
The effects of two cell membrane-permissible nonpeptide calpain inhibitors, PD 150606 and PD 151746 (Calbiochem), were also tested. […] PD 150606 and […] were separately added to the relaxing solution before TRITON® X-100 treatment and incubated with the minced ventricular muscle at 4° C. for 10 minutes to allow the inhibitor to penetrate cell membrane and bind to calpain. After TRITON® X-100 extraction, samples were collected for SDS-PAGE and Western blotting to examine the effect on cTnT modification.

O=C(O)/C(S)=C/c1ccc(I)cc1 [PD150606]
cTnT-ND production decreased to: 63%
decrease in cTnT-ND72-291 production: approximately 37%

O=C(O)/C(S)=C/c1c[nH]c2ccc(F)cc12 [PD151746]
cTnT-ND production decreased to: 50%
decrease in cTnT-ND72-291 production: approximately 50%
